Laboratory results published in patent US4414205A, “Cell growth inhibitory substances” (University Patents, Inc., priority 1981, dated 1983).

Legend:
B16 melanoma = test: Mouse tumor system B16 melanoma (NCI murine B16 melanoma test); type: in vivo
Description: (§1) A description of the antitumor tests, described herein, appears in the reference by R. I. Geran, N. H. Greenberg, M. M. MacDonald, A. M. Schumacher and B. J. Abbott, Cancer Chemother. Rep. Part 3, Vol. 3(2): 1-103 (1972).
(§2) ^a tumors were inoculated intraperitoneally (i.p.)
(§3) ^b compounds were administered i.p. everyday for 9 days starting on
(§4) the first day after tumor inoculation.
(§5) ^c Calculated from median survival times; Nos. in parentheses = No. o
(§6) cures/total No. of mice in group. Cured mice survive for at least 60 days

P388 leukemia = test: Mouse tumor system P388 leukemia (murine P388 lymphocytic leukemia); type: in vivo
Description: as §1, §2, §3, §4, §5, §6

Dolastatin 1 was tested, and the “No. of cures/total No. of mice in group” value (B16 melanoma; B16 melanoma i.p., optimal dose i.p. daily for 9 days, cured mice survive at least 60 days) was 3/10, the “life span in percent of controls” value (B16 melanoma; B16 melanoma inoculated i.p., compound i.p. every day for 9 days at optimal dose, from median survival times) was 240% of controls and the optimal dose (B16 melanoma; B16 melanoma, i.p. every day for 9 days starting first day after tumor inoculation) was 11 μg/kg/injection. The curative response (B16 melanoma; murine B16 melanoma, intraperitoneal dose of 11 μg/kg/day) was 30%, the “life span in percent of controls” value (P388 leukemia; P388 leukemia inoculated i.p., compound i.p. every day for 9 days at optimal dose, from median survival times) was 188% of controls and the optimal dose (P388 leukemia; P388 leukemia, i.p. every day for 9 days starting first day after tumor inoculation) was 11 μg/kg/injection. For the same substance, the life extension (P388 leukemia; murine P388 lymphocytic leukemia, intraperitoneal doses of 11 μg/kg/day) was 88%.
